Assay results taken from patent US6875775B2, “Triphenylalkene derivatives and their use as selective estrogen receptor modulators” (Hormos Medical Oy LTD, priority 1999, dated 2005).
Read-outs that look alike come from different tables or passages of the source.

What was measured:
immature rat uterus = test: 3 day uterotropic assay in immature female rats; conditions: Table 3
Experimental: Estimation of Estrogenicity and Antiestrogenicity in Vivo
The results have been shown in Table 3 both as per cent of estrogen stimulation (100%), and as inhibition of estrogen action (full inhibition is 100%). The values are given at two dose levels, low i.e. 3-5 mg/kg and high i.e. 10-50 mg/kg. Estrogenic activity can be estimated also after a 4 weeks' treatment of ovariectomized rats based on the uterine size.

MCF-7 cells = test: cells; format: cell-based; conditions: for Killing of MCF-7 cells at the highest investigated concentration (in words): 10 μM, compounds with weak hormonal activity; for Emax / cytotoxicity at 10 µM / inhibition at 1 µM: Homo sapiens, MCF7, 96 h; for Emax: read-out: Maximal Agonism (% of E2); for cytotoxicity at 10 µM / Maximal Cell Kill (% fraction of dead cells): 10 μmol/l; for cytotoxicity at 10 µM: read-out: Maximal Cell Kill (% fraction of dead cells); for inhibition at 1 µM: read-out: Antagonism at 1 μM (% of full antagonism)
Experimental: Evaluation of Estrogenic and Antiestrogenic Properties of Compounds in MCF-7 Cell Growth Experiments in Vitro
For experiments involving hormone or anti-hormone treatment, the cells in exponential growth phase were precultivated in the absence of estradiol for one day. […] After the incubation period the medium was removed. The exposure to study drugs was started immediately by adding fresh medium with 5% stripped serum. Half of the cells were grown with estradiol, half without estradiol. Study compounds (dissolved in ethanol in 0.01 M concentration and diluted with the growth medium as appropriate) were added. The final concentrations of the compounds were 1, 10, and 100 nM, and 1 and 10 μM. The cells were incubated for four days.
This method allows evaluation of estrogenicity based on the ability of the compounds to stimulate the growth of the estrogen-dependent cells in the absence of estradiol.
Estrogenicity was estimated by comparing the maximal growth stimulus (at any concentration) of study compound as percent from growth stimulus by estradiol (100% stimulus). […] At high concentrations molecules may also show toxicity. Toxicity was estimated as the fraction of dead cells (i.e. 100% means that all cells have died during the exposure).

[1] = Overall hormonal profile summarised from Tables 2, 3 and 4
[2] = tested on: ovariectomized (OVX) rats; test: Serum cholesterol level in ovariectomized (OVX) rats after 4 weeks dosing; format: in vivo, rat; conditions: for Effect on cholesterol (in words): OVX rats, Table 4; for Cholesterol level (mmol/l) in serum: OVX rat, 4 weeks dosing
Excerpt: Estimation of Effects to Cholesterol and Bone
(§1) Compounds were given p.o. to female rats for 4 or 5 weeks daily. At the end a blood sample was taken. Serum was separated by centrifugation and frozen until analyzed for total amount of cholesterol. Bone samples were taken from vertebra and tibia. Physical strength of the bones was studied as described by Peng et al, 1994.

ovariectomized rats [3] = test: Maximal load of femoral neck (cantilever bending test) in ovariectomized rats after 4 weeks dosing; format: in vivo, rat; conditions: OVX rats
Experimental: as §1, with “1994. The assessments of the bone included:” for “1994.”
Mechanical Testing of Bones
The mechanical testing of bones was carried out by materials testing machine, constructed in-house at Oulu University (Technical Services Dcpartment of the Medical Faculty). The testing machine is based on lever arm principle. One end of a steel lever is fixed. The pressing rod and the driving motor are connected to the lever arm with a moment ratio of 12.5 cm/50 cm=¼. As a driving motor a linear actuator (SEY 10 Magnetic Elektromotoren AG, Switzerland) is used to obtain constant vertical movement (0.62 cm/s). The interchangeable compression head is mounted on the pressing rod for different tests transmitting compressive force to the specimen, and moving at a constant speed of 0.155 mm/s up to a maximal load capacity of 1200 N. The pressing rod is guided via an axial ball bearing to keep the movement vertical. Compressive force is measured by a temperature-compensated force sensor, which is attached to the stationary part of the compression stage. The measuring electronics include sensor calibration and adjustments.
The maximal load on the femoral neck was measured by the cantilever bending test. The supporter for the bone was a thick polymethyl methacrylate plate in which several holes of different sizes were drilled. On one side of each hole a groove was engraved for the […] trochanter of the femur. The femur was cut exactly between the middle and lower third of the shaft. The bone was inserted perpendicularly and tightly into a suitable hole on the supporter. The lesser trochanter of each bone touched the surface of the plate. This procedure allowed rapid and stable fixation of the bone without using any additional embedding materials. […]

[4] = tested on: DMBA-induced rat mammary gland cancer; test: Antitumor activity in DMBA-induced rat mammary gland cancer model; format: in vivo
Experimental: Estimation of Antitumor Activity in Vivo
Antitumor activity was estimated by using DMBA (dimethylbenz[a] anthracene) model. One single peroral dose of DMBA (12 mg) initiates mammary gland carcinogenesis. New compounds were administered for 5 weeks when palpable tumors appeared. Size of the tumors and number of new tumors were carefully estimated once a week until termination. The model has been described in detail by Kangas et al, 1986. The growth of the tumors was measured once a week. All tumors were classified according to their growth properties to progressing, stable and regressing ones. Disappeared tumors were separately calculated. The tumors were considered to be progressing, if the tumor volume grew more than 8-fold during the 5 weeks dosing period, and regressing if the tumor volume decreased to one fourth or less from the volume in the beginning. If tumor volume changed less or remained unchanged, the tumors were considered to be stable.

[5] = tested on: intact and castrated male rats; test: Weight of the prostate gland in intact and castrated male rats after 4 weeks daily treatment; format: in vivo, rat; conditions: for Weight of the prostate gland (g) mean and sd: 4 weeks daily
ovariectomized rats [6] = test: Ash weight of tibial epiphyses in ovariectomized rats after 4 weeks dosing; format: in vivo, rat; conditions: OVX rats
Excerpt: as §1, with “1994. The assessments of the bone included:” for “1994.”
Ash Weight of Tibial Epiphyses
Epiphyses of one tibia was carefully prepared and burned. Samples were burned to remove water and organic material. Ash weight relates to the mineral content of the bone. In addition, bone samples were taken to study the histomorphometry. In some cases the bone formation was studied by injecting tetracycline (50 mg/kg i.p. 10 days before autopsy) and calcein (20 mg/kg i.p. 3 days before autopsy). The method is based on permanent binding of tetracycline into growing bone and its detection by fluorescence (Peng et al, 1994).

ovariectomized rats [7] = test: Size of the uterus after 4 weeks treatment of ovariectomized rats; format: in vivo, rat
[8] = Without estradiol (E2), maximal growth stimulus at any concentration, 4 days
[9] = 15 mg/kg p.o. daily for 5 weeks

Compound: CN(C)CCOc1ccc(/C(=C(/CCCl)c2ccccc2)c2ccc(F)cc2)cc1 [No. 1, (E)-(2-{4-[4-Chloro-1-(4-fluorophenyl)-2-phenylbut-1-enyl]phenoxy}ethyl)-dimethylamine]
- Estrogenic action in vivo / in the uterus (in words) (immature rat uterus): weak estrogen in vivo
- Killing of MCF-7 cells at the highest investigated concentration (in words) (MCF-7 cells): kill MCF-7 cells (human breast cancer cells) effectively
- Estrogenic action in vitro (in words) (MCF-7 cells; in vitro, Table 2): no estrogenic action in vitro

Compound: CN(C)CCOc1ccc(/C(=C(/CCCl)c2ccccc2)c2ccc(Cl)cc2)cc1 [No. 3, (E)-(2-{4-[4-Chloro-1-(4-chlorophenyl)-2-phenylbut-1-enyl]phenoxy}ethyl)-dimethylamine]
- Estrogenic and antiestrogenic action (in words) [1]: weak estrogenic and no antiestrogenic action
- Effect on cholesterol (in words) [2]: decrease cholesterol
- Killing of MCF-7 cells at the highest investigated concentration (in words) (MCF-7 cells): kill MCF-7 cells (human breast cancer cells) effectively

Compound: OCCOc1cccc(/C(=C(/CCCl)c2ccccc2)c2ccccc2)c1 [No. 18, (Z)-2-[3-(4-Chloro-1,2-diphenyl-but-1-enyl)phenoxy]ethanol]
- Estrogenic and antiestrogenic action (in words) [1]: weak estrogenic and no antiestrogenic action
- Emax (MCF-7 cells; [8]): 30%

Compound: OCCOCCOc1ccc(/C(=C(/CCCl)c2ccccc2)c2ccccc2)cc1 [No. 19, (Z)-2-{2-[4-(4-Chloro-1,2-diphenylbut-1-enyl)phenoxy]ethoxy}ethanol]
- Maximal load (N) of femoral neck (ovariectomized rats [3]; 1.0 mg/kg p.o.): 81.6 ± 7.9 N
- Maximal load (N) of femoral neck (ovariectomized rats [3]; 5.0 mg/kg p.o.): 85.7 ± 17.0 N
- Estrogenic and antiestrogenic action (in words) [1]: weak estrogenic and no antiestrogenic action
- Disappeared tumors (per cent of total tumor number) ([4]; 3 mg/kg p.o. daily for 5 weeks): 20%
- Growing tumors (per cent of total tumor number) ([4]; 3 mg/kg p.o. daily for 5 weeks): 20%
- Regressing tumors (per cent of total tumor number) ([4]; 3 mg/kg p.o. daily for 5 weeks): 40%
- Stable tumors (per cent of total tumor number) ([4]; 3 mg/kg p.o. daily for 5 weeks): 20%
- Disappeared tumors (per cent of total tumor number) [4, 9]: 14%
- Growing tumors (per cent of total tumor number) [4, 9]: 14%
- Regressing tumors (per cent of total tumor number) [4, 9]: 57%
- Stable tumors (per cent of total tumor number) [4, 9]: 14%
- Anticancer efficacy in vivo compared with tamoxifen and toremifene (in words) ([4]; DMBA-induced rat mammary tumor model, even at very low doses): more effective anticancer drug in vivo
- Weight of the prostate gland (g) mean and sd ([5]; 0.5 mg/kg to castrated rats): 0.59 ± 0.07 g
- Weight of the prostate gland (g) mean and sd ([5]; 0.5 mg/kg, intact male rats): 2.66 ± 0.21 g
- Weight of the prostate gland (g) mean and sd ([5]; 5.0 mg/kg to castrated rats): 0.62 ± 0.07 g
- Weight of the prostate gland (g) mean and sd ([5]; 5.0 mg/kg, intact male rats): 1.58 ± 0.5 g
- Estrogenic action on the weight of the prostate gland (in words) ([5]; at doses which are active in DMBA-induced mammary tumor model): does not show any estrogenic action
- Cholesterol level (mmol/l) in serum ([2]; 0.3 mg/kg): 3.6 ± 0.4 mmol/L
- Cholesterol level (mmol/l) in serum ([2]; 10 mg/kg): 3.9 ± 0.6 mmol/L
- Effect on cholesterol (in words) [2]: decrease cholesterol
- Killing of MCF-7 cells at the highest investigated concentration (in words) (MCF-7 cells): kill MCF-7 cells (human breast cancer cells) effectively
- cytotoxicity at 10 µM (MCF-7 cells; With estradiol (E2)): 50%
- cytotoxicity at 10 µM (MCF-7 cells; Without estradiol (E2)): 14%
- inhibition at 1 µM (MCF-7 cells; With estradiol (E2), 1 μM): 21%
- Emax (MCF-7 cells; [8]): 14%
- Ash weight (mg) of tibial epiphyses (ovariectomized rats [6]; 1.0 mg/kg p.o.): 34.8 ± 1.3 mg
- Ash weight (mg) of tibial epiphyses (ovariectomized rats [6]; 5.0 mg/kg p.o.): 34.9 ± 1.9 mg
- Uterine size (ovariectomized rats [7]; 1.0 mg/kg peroral daily): 0.192 ± 0.029 g
- Uterine size (ovariectomized rats [7]; 5.0 mg/kg peroral daily): 0.221 ± 0.023 g

Compound: OCC(O)COc1ccc(/C(=C(/CCCl)c2ccccc2)c2ccccc2)cc1 (centres unmarked) [No. 20, (Z)-3-[4-(4-Chloro-1,2-diphenyl-but-1-enyl)phenoxy]propane-1,2-diol]
- Maximal load (N) of femoral neck (ovariectomized rats [3]; 3.0 mg/kg p.o.): 81.7 ± 15.2 N
- Estrogenic and antiestrogenic action (in words) [1]: weak estrogenic and no antiestrogenic action
- Cholesterol level (mmol/l) in serum ([2]; 1 mg/kg): 3.3 ± 0.6 mmol/L
- Cholesterol level (mmol/l) in serum ([2]; 5 mg/kg): 2.3 ± 0.4 mmol/L
- Effect on cholesterol (in words) [2]: decrease cholesterol
- cytotoxicity at 10 µM (MCF-7 cells; With estradiol (E2)): 60%
- cytotoxicity at 10 µM (MCF-7 cells; Without estradiol (E2)): 5%
- inhibition at 1 µM (MCF-7 cells; With estradiol (E2), 1 μM): 25%
- Emax (MCF-7 cells; [8]): 8%
- Ash weight (mg) of tibial epiphyses (ovariectomized rats [6]; 3.0 mg/kg p.o.): 35.0 ± 3.2 mg
- Uterine size (ovariectomized rats [7]; 1.0 mg/kg peroral daily): 0.133 ± 0.032 g

Compound: CN(C)CCSc1ccc(/C(=C(/CCCl)c2ccccc2)c2ccccc2)cc1 [No. 32, (Z)-1-[4-(2-Dimethylaminoethylsulfanyl)phenyl]-1,2-diphenyl-4-chloro-but-1-ene]
- Estrogenic and antiestrogenic action (in words) [1]: weak estrogenic and no antiestrogenic action
- cytotoxicity at 10 µM (MCF-7 cells; With estradiol (E2)): 90%
- cytotoxicity at 10 µM (MCF-7 cells; Without estradiol (E2)): 86%
- inhibition at 1 µM (MCF-7 cells; With estradiol (E2), 1 μM): 0%
- Emax (MCF-7 cells; [8]): 11%

Compound: CN(C)CCOc1cccc(/C(=C(/CCCl)c2ccccc2)c2ccccc2)c1 [No. 33, (Z)-{2-[3-(4-Chloro-1,2-diphenylbut-1-enyl)phenoxy]ethyl}dimethylamine]
- Effect on cholesterol (in words) [2]: decrease cholesterol
- Emax (MCF-7 cells; [8]): 20%
- Cytotoxic action (in words) (MCF-7 cells; Table 2): weak

Compound: OCCSc1ccc(/C(=C(/CCCl)c2ccccc2)c2ccccc2)cc1 [No. 36, (Z)-2-[4-(4-Chloro-1,2-diphenyl-but-1-enyl)-phenylsulfanyl]ethanol]
- Estrogenic and antiestrogenic action (in words) [1]: weak estrogenic and no antiestrogenic action
- cytotoxicity at 10 µM (MCF-7 cells; With estradiol (E2)): 37%
- cytotoxicity at 10 µM (MCF-7 cells; Without estradiol (E2)): 17%
- inhibition at 1 µM (MCF-7 cells; With estradiol (E2), 1 μM): 13%
- Emax (MCF-7 cells; [8]): 8%

Compound: C#CCN(C)CCOc1ccc(/C(=C(/CCCl)c2ccccc2)c2ccccc2)cc1 [No. 44, (Z)-{2-[4-(4-Chloro-1,2-diphenylbut-1-enyl)phenoxy]ethyl}-methylprop-2-ynylamine]
- Estrogenic and antiestrogenic action (in words) [1]: weak estrogenic and no antiestrogenic action
- cytotoxicity at 10 µM (MCF-7 cells; With estradiol (E2)): 95%
- cytotoxicity at 10 µM (MCF-7 cells; Without estradiol (E2)): 78%
- inhibition at 1 µM (MCF-7 cells; With estradiol (E2), 1 μM): 8%
- Emax (MCF-7 cells; [8]): 24%

Compound: E-3-(4-Chloro-1-{4-[2-(2-hydroxyethoxy)ethoxy]phenyl}-2-phenylbut-1-enyl)phenol [Example 11]
- Estrogenic and antiestrogenic action (in words) [1]: weak estrogenic and no antiestrogenic action
- Antagonism at 1 μM (% of full antagonism) (MCF-7 cells; With estradiol (E2), 1 μM): 0 % of full antagonism
- Maximal Cell Kill (% fraction of dead cells) (MCF-7 cells; With estradiol (E2)): 55 % fraction of dead cells
- Maximal Cell Kill (% fraction of dead cells) (MCF-7 cells; Without estradiol (E2)): 26 % fraction of dead cells
- Maximal Agonism (% of E2) (MCF-7 cells; [8]): 14 % of E2
